Read-outs that look alike come from different tables or passages of the source.
Columns and labels:
HIV in human macrophages [1] = experiment: Inhibition of HIV production in normal human macrophages (supernatant p24, acute infection); format: cell-based
Protocol: (§1) 1. […] All three viral strains were grown in the Tissue Culture Laboratory of the AIDS Activity Division of San Francisco General Hospital where titers of […] infectious units per ml were routinely achieved.
(§2) 2. Source of cells: The VB cell line used in Example 1 is a T lymphoma cell line that is highly susceptible to infection with HIV, and expresses high levels of cell surface CD4 molecules. This cell line forms syncytia within two days after infection with all strains of HIV tested to date. […] This is used to quantitate infection in the absence of syncytial formation, infection being quantitated by immunofluorescence assays. The HXB/H9 cell line (Example 6) is an H9 cell population that chronically produces the HTLV-IIIB strain of HIV and is utilised in experiments testing antiviral effects on chronically infected cell lines. Human macrophages were prepared from peripheral blood mononuclear cells either obtained from the blood bank as a buffy coat, or as a leukophoresis preparation. Crowe et al. supra have devised an assay system that allows quantitation of HIV infection, and inhibition of infection using immunocytofluorographic analysis. In order to quantitate HIV infection in macrophages, they grow macrophages in Teflon (Trade Mark) culture vessels which maintain macrophages in suspension in vitro culture for up to six months. Cell surface and cytoplasmic immunofluorescence staining is then performed to quantitate antigens in macrophages by flow cytometry.
(§3) 4. HIV soluble p24 antigen detection: Soluble p24 antigens were measured with the Abbott HIV antigen detection system.
(c) To test whether Compounds A and B were effective at blocking acute infection of macrophages, macrophages from Teflon cultures were exposed at a multiplicity of 1 to HIV-DV in the presence or absence of various concentrations of drug (Examples 3-5). Normally, HIV expression peaks in human macrophages at approximately ten days after initial infection. Therefore, after infection for one hour at room temperature, followed by a wash and resuspension of the macrophages in various drug concentrations, macrophages were stained for the presence of p24 antigen at day ten. Culture supernatants from these macrophages were assayed for the presence of soluble p24, and infectious virus as described above.
To test whether compounds A and B might be active at inhibiting infection of normal human macrophages, a spectrum of drug concentrations were tested for inhibition of acute infection, and inhibition of HIV expression in chronically infected macrophages. […] After acute infection (one hour) cells were incubated in various concentrations of compounds A and B, and 7 days after the initial infection supernatants were harvested for p24 antigen quantitation. […]

[2] = tested on: peripheral blood lymphocytes; experiment: Nonspecific toxicity to peripheral blood lymphocytes; format: cell-based, human
[3] = tested on: HIV in activated peripheral blood lymphocytes; experiment: Inhibition of HIV mediated cytopathic effects / p24 antigen production in activated peripheral blood lymphocytes; format: cell-based; settings: for p24 antigen production: activated PBL, about 7 days after infection, FIG. 2
Protocol: as §1, §3
(b) Although the VB T lymphoma cell line behaves in a similar manner to peripheral blood CD4 positive T lymphocytes in regard to HIV induced cytopathic effects, the above described experiments were performed on phytohemagglutinin (PHA) activated lymphocytes to determine whether lymphocytes are more or less sensitive to Compounds A and B than is the VB cell line. In this assay system, at the time that multinucleated giant cells appeared within infected lymphocyte cultures, the supernatants were analyzed for the presence of HIV p24 antigens and were titered on indicator VB lymphoma cells to determine the titer of infectious virus present at each point.
To test whether the effects of compounds A and B on acute VB T lymphoma infection would be mimicked by activated peripheral blood lymphocytes (PBC), HIV at a multiplicity of infection of one was added to lymphocytes that had been activated for 48 hours with 2 μg per ml of PHA. After the initial infection for one hour, the activated lymphocytes were washed and resuspended for the one week of culture. Multinucleated giant cells began to form approximately 7 days after the initial infection, at which time the culture supernatants were harvested and tested for the presence of HIV p24 antigens. The accumulation of HIV p24 antigens in the supernatant is representative of production of HIV from infected cells.

HIV in human macrophages [4] = experiment: Inhibition of cytoplasmic HIV p24 antigen in HIV-infected macrophages; format: cell-based; settings: FIG. 4
Protocol: as §1, §2
3. Flow cytometry: An Ortho Cytofluorgraf II-S (Trade Mark) that has a biohazard containment flow cell was used for analysis of HIV infected samples. HIV p24 antigens were detected utilizing a mouse monoclonal anti-p24 (du Pont), and mouse antibodies were identified utilizing an FITC conjugated goat anti-mouse IgG. […]
The cells from the experiment described in Example 3 were analysed, and the cytoplasm was analysed for the presence of HIV p24 to directly test whether HIV p24 antigen production was inhibited within those infected cells. […]

normal human macrophages = experiment: Nonspecific toxicity to normal human macrophages; format: cell-based; settings: 10^-4 to 10^-8 molar
Protocol: 7. Analysis of nonspecific toxicity to the target cells with Compounds A and B. The VB, H9 and HXB cell lines were exposed to different concentrations of Compounds A and B as were normal human macrophages for the length of time the drug was in contact with each cell line as described in the above assays. Cell numbers were counted, and live versus dead were determined by Trypan blue exclusion assays. These tests were required to determine a therapeutic index between nonspecific toxic effects on the described cells, compared with potential effective antiviral effects in vitro (Example 6).

[5] = tested on: glucose-6-phosphate dehydrogenase; settings: cited from earlier work

With `C[C@]12CC[C@H](O)CC1=CC[C@@H]1[C@@H]2CC[C@]2(C)C(=O)CC[C@@H]12` [A, dehydroepiandrosterone] the “decrease in production of HIV p24 antigens (supernatant)” value (HIV in human macrophages [1]; 10^-4 through 10^-8 molar, 7 days after acute infection, FIG. 3) was “approximately 50%”, the “HIV infection and HIV expression in macrophages” value (HIV in human macrophages [1]; in vitro, reproducible, six separate monocyte/macrophage donors) was “inhibit HIV infection and HIV expression in macrophages” and the “toxicity with the PBL cultures” value ([2]; 10^-4 and 10^-5 molar) was “No appreciable toxicity”. For the same compound, the “toxicity to peripheral blood lymphocytes” value ([2]; 10^-4 to 10^-8 molar) was “nor was there appreciable toxicity”, the p24 antigen production ([3]; 10^-4 molar) was “moderately inhibited” and the p24 antigen production ([3]; 10^-5 molar) was “slightly less inhibited”. For the same compound, the “antiviral effects in comparison with AZT, lymphocytes” value ([3]; acute infection) was “inferior”, the “antiviral effect in acute infection studies of lymphocytes” value ([3]; acute infection, conclusions) was “mild antiviral effect” and the “HIV p24 cytoplasmic antigen production” value (HIV in human macrophages [4]; 10^-4 molar, three donors) was “substantially inhibited”. The “inhibiting HIV p24 antigen production within infected macrophages” value (HIV in human macrophages [4]; dilutions even at 10^-6 molar) was “active”, the “toxicity in normal macrophages” value (normal human macrophages) was “not appreciable toxicity” and the “effect on glucose-6-phosphate dehydrogenase” value [5] was “inhibits glucose-6-phosphate dehydrogenase”. The “effect on glucose-6-phosphate dehydrogenase” value ([5]; listed as DHEA) was “inhibitory effect”.
